According to article PMC7438487, “Structural studies reveal flexible roof of active site responsible for ω-transaminase CrmG overcoming by-product inhibition” (Communications Biology, 2020):

Target: T1, CrmG (Actinoalloteichus sp. WH1-2216-6, UniProt H8Y6N2, W223A)
T1 construct: pET28a, N-terminal His-tag and 14 additional vector residues; expressed in E. coli BL21; dimer (114 kDa by DLS)
Assay: UV-vis conversion of PLP to PMP
Type: biochemical
Settings: 0.02 mM CrmG W223A, 0.2 mM PLP, 2 mM amino donor (L-Glu, L-Gln or L-Ala), 50 mM Tris pH 7.5, 30 °C

T1 sequence (H8Y6N2 entry or part of it W223A): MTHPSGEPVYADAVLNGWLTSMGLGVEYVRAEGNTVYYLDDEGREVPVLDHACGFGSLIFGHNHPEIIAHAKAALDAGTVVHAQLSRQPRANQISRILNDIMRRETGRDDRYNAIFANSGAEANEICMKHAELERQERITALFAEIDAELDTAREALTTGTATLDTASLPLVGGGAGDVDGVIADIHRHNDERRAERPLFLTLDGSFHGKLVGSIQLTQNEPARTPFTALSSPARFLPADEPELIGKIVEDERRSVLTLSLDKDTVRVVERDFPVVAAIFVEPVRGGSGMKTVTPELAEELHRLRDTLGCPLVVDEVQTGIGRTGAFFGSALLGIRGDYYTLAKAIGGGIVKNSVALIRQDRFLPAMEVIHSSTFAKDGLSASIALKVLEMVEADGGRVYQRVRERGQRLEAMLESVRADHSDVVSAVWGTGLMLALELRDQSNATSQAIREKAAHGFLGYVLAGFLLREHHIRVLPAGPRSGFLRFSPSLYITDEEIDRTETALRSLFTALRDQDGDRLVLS

SMILES: Cc1ncc(COP(=O)(O)O)c(C=O)c1O [PLP]
- UV-vis conversion of PLP to PMP: CrmG catalyzing PLP conversion to PMP is greatly improved by the mutation W223A
